Results as given in ChEMBL document CHEMBL1275423 (Antimicrob Agents Chemother, 2008).
≈ marks a conversion by molar mass, not a printed value. Calls of active or inactive are those of the source. No cut-off for these calls is given here.

Experiments:
Format in all cases: functional, organism-based
Bacillus anthracis [1] = experiment: Antimicrobial activity against Bacillus anthracis MurA1 AS clone 2G2 assessed as growth inhibition in presence of xylose by antisense-induced hypersensitive testing
Bacillus anthracis [2] = experiment: Antimicrobial activity against Bacillus anthracis metRS1 AS 1H1 assessed as growth inhibition in presence of xylose by antisense-induced hypersensitive testing
Bacillus anthracis [3] = experiment: Antimicrobial activity against Bacillus anthracis MurA1 AS clone 2G2 assessed as growth inhibition in absence of xylose by antisense-induced hypersensitive testing
[4] = Bacillus anthracis, MurA1 AS clone 2G2, read-out: IC50

**Q.** `CCN1CCN(C(=O)N[C@@H](C(=O)N[C@@H]2C(=O)N3[C@@H]2SC(C)(C)[C@@H]3C(=O)O)c2ccccc2)C(=O)C1=O` was tested. Which inhibition (Bacillus anthracis [1]) did it give?
**A.** Its inhibition is “Active”.

**Q.** Which inhibition (Bacillus anthracis [1]) does the source give for `CN[C@H](CC(C)C)C(=O)N[C@H]1C(=O)N[C@@H](CC(N)=O)C(=O)N[C@H]2C(=O)N[C@H]3C(=O)N[C@H](C(=O)N[C@H](C(=O)O)c4cc(O)cc(O)c4-c4cc3ccc4O)[C@H](O)c3ccc(c(Cl)c3)Oc3cc2cc(c3O[C@@H]2O[C@H](CO)[C@@H](O)[C@H](O)[C@H]2O[C@H]2C[C@](C)(N)[C@H](O)[C@H](C)O2)Oc2ccc(cc2Cl)[C@H]1O` here?
**A.** Its inhibition is “Active”.

**Q.** With `Cc1onc(-c2ccccc2)c1C(=O)N[C@@H]1C(=O)N2[C@@H]1SC(C)(C)[C@@H]2C(=O)O` as the compound, how does the inhibition (Bacillus anthracis [1]) read?
**A.** The inhibition was “Active”.

**Q.** How did the inhibition (Bacillus anthracis [2]) turn out when `O=C(O)c1ccc(OCc2nc3ccccc3[nH]2)c(OCc2ccc(Cl)cc2Cl)c1` was run?
**A.** Its inhibition is “Active”.

**Q.** `C[C@@H]1O[C@@H]1P(=O)(O)O` [FOSFOMYCIN] was tested. Which IC50 (Bacillus anthracis [3]; [4]) did it give?
**A.** The IC50 was 126 µg/mL (≈ 913 µM).

**Q.** What about the IC50 (Bacillus anthracis [1]; [4]) of the same compound?
**A.** The IC50 was 18 µg/mL.

**Q.** What does the source list for `CN(C)[C@@H]1C(O)=C(C(N)=O)C(=O)[C@@]2(O)C(O)=C3C(=O)c4c(O)cccc4[C@@](C)(O)[C@H]3C[C@@H]12` [TETRACYCLINE]?
**A.** IC50 (Bacillus anthracis [3]): Not Active; IC50 (Bacillus anthracis [1]): Not Active
